# pIC50: −log10 of the molar value. Several values for one entry are separate records, joined by “and”; a condition that tells them apart may be missing. Equal entries are not always repeated.
# System: 454973-116-R2-J3-PDC spheroids, viability, % test/control
# Test: Anticancer human tumor 454973-116-R2-J3-PDC patient-derived pancreatic carcinoma cell line growth inhibition [GQUAD]
# Conditions: spheroids with HUVEC and MSC; for viability, T/C: stronger effect = lower value
# Source text: DNA G-quadruplex Stabilizer Agents in Combinations in Complex Spheroids
# A high-throughput screen of multi-cell type tumor spheroids was designed to identify active combinations of DNA G-quadruplex stabilizer agents and targeted small molecules. Complex spheroids include a stromal component modeled by human endothelial cells (HUVEC) and fibroblasts modeled by human mesenchymal stem cells (MSCs). The concentration ranges selected for each drug and investigational agent were based upon clinically achievable concentrations if the clinical Cmax of the agent was known.
# Compounds. The drugs and investigational agents: pidnarulex (CX-5461; NSC782164), APTO-253 (NSC789042), BRACO-19 (NSC847499), peposertib (NSC802822), ceralasertib (NSC780249), elimusertib (NSC800525), camonsertib (NSC841442), AZD-1390 (NSC803789), olaparib (NSC753686), talazoparib (NSC767125), ART-558 (NSC835418), sotorasib (NSC818433), MRTX-1133 (NSC836407), SN-38 (NSC673596), topotecan (NSC609699), etoposide (NSC141540), doxorubicin (NSC123127), gemcitabine (NSC613327), 5-fluorouracil (NSC19893), paclitaxel (NSC125973), vemurafenib (NSC761431), panobinostat (NSC761190), R-306465 (JNJ-16241199; NSC773264), adavosertib (NSC754352), TP-3654 (NSC805149), carboplatin (NSC241240), KSQ-4279 (NSC840948), and staurosporine (NSC755774) were obtained from the National Cancer Institute (NCI) Developmental Therapeutics Program Chemical Repository (34). The FDA-approved anticancer drug set is available from the NCI Developmental Therapeutics Program. […] The stock solutions were prepared in dimethyl sulfoxide (DMSO, Sigma-Aldrich, St. Louis, MO, cat. D2650) at 800-fold the tested concentration and stored at -70 degrees C prior to their use. All drugs and investigational agents were tested over a range starting from a high concentration at or near the clinical Cmax and decreasing in half-log increments. If the clinical Cmax for an agent had not been determined, the highest concentration tested was 10 microM.
# 2.3 Cell Culture. All cells were maintained in an incubator at 37 degrees C and 5% CO2 with 95% humidity. The PDC lines were cultured according to standard operating procedures established by the NCI PDMR. All PDCs were thawed and cultured in Matrigel-coated flasks prepared with a working solution of 1X Ham's F-12 nutrient mix, without supplementation (Invitrogen, cat. 11765054), 100 U/mL penicillin-streptomycin (Invitrogen, cat. 15140122), and 2.5% Matrigel (Corning Inc., cat. 354248) for the first three passages. The 857933-349-R-J2-PDC line was cultured in 6C/Colon 1B media, which includes advanced DMEM/F-12 (Thermo Fisher Scientific, cat. 12634028), 10 mM HEPES (Thermo Fisher Scientific, cat. 15630080), 1X GlutaMAX supplement (Thermo Fisher Scientific, cat. 35050061), 0.1 mg/mL primocin (InvivoGen, cat. ant-pm-2), 10% defined fetal bovine serum, heat inactivated (HyClone Laboratories Inc., cat. SH30070.03HI), 50% L-WRN conditioned media (ATCC, cat. CRL-3276), 1.25 mM N-Acetyl-L-cysteine (Sigma-Aldrich, cat. A9165), 10 mM nicotinamide (Sigma-Aldrich, cat. N0636), 1X B-27 supplement (Thermo Fisher Scientific, cat. 17504044), 1X N-2 supplement (Thermo Fisher Scientific, cat. 17502048), 10 microM Y-27632 dihydrochloride (Tocris Bioscience, cat. 1254), and 50 ng/mL human EGF recombinant protein (Thermo Fisher Scientific, cat. PHG0311). The 485176-168-R4-J1-PDC line was cultured in Panc media, which includes all 6C/Colon 1B media components plus 100 ng/mL human FGF-10 (Thermo Fisher Scientific, cat. 100-26), 500 nM SB-431542 (Selleckchem, cat. S1067), and gastrin (Tocris, cat. 3006).
# […]
# 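Note: spheroids exposed to compounds for seven days.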
structure (smiles),measurement,setting,value
COc1ncnc(C2CC2)c1-c1ncc2cnn(Cc3ccc(-c4nc(C(F)(F)F)cn4C(C)C)cc3)c2n1,"viability, T/C",compound 0.0316 µM,93.7% and 116% and 113%
same,"viability, T/C",compound 0.1 µM,103% (2×) and 110%
same,"viability, T/C",compound 0.316 µM,94.6% and 105% and 101%
same,"viability, T/C",compound 1 µM,94.7% and 98.2% and 94.5%
same,"viability, T/C",compound 3.16 µM,114% and 109% and 97.9%
same,"viability, T/C",compound 10 µM,99.9% and 102% (2×)
same,pIC50,curve of compound,< 5.00
CCc1c2c(nc3ccc(O)cc13)-c1cc3c(c(=O)n1C2)COC(=O)[C@]3(O)CC + Cc1[nH]c2ccc(F)cc2c1-c1nc2c3cccnc3c3ncccc3c2[nH]1,pIC50,"curve of first compound, second compound 0.0316 µM",8.82
same,pIC50,"curve of first compound, second compound 0.1 µM",8.83
same,pIC50,"curve of first compound, second compound 0.316 µM",8.78
same,pIC50,"curve of first compound, second compound 1 µM",8.79
same,pIC50,"curve of first compound, second compound 3.16 µM",8.87
same,pIC50,"curve of first compound, second compound 10 µM",8.81
same,"viability, T/C","second compound 0.0316 µM, first compound 0.000999 µM",62.5%
same,"viability, T/C","second compound 0.0316 µM, first compound 0.00316 µM",26.2%
same,"viability, T/C","second compound 0.0316 µM, first compound 0.00999 µM",21.5%
same,"viability, T/C","second compound 0.0316 µM, first compound 0.0316 µM",14.5%
same,"viability, T/C","second compound 0.0316 µM, first compound 0.0999 µM",7.97%
same,"viability, T/C","second compound 0.0316 µM, first compound 0.316 µM",3.8%
same,"viability, T/C","second compound 0.1 µM, first compound 0.000999 µM",63.1%
same,"viability, T/C","second compound 0.1 µM, first compound 0.00316 µM",21.8%
same,"viability, T/C","second compound 0.1 µM, first compound 0.00999 µM",19.9%
same,"viability, T/C","second compound 0.1 µM, first compound 0.0316 µM",13%
same,"viability, T/C","second compound 0.1 µM, first compound 0.0999 µM",8.7%
same,"viability, T/C","second compound 0.1 µM, first compound 0.316 µM",3.86%
same,"viability, T/C","second compound 0.316 µM, first compound 0.000999 µM",67.5%
same,"viability, T/C","second compound 0.316 µM, first compound 0.00316 µM",25.7%
same,"viability, T/C","second compound 0.316 µM, first compound 0.00999 µM",19.2%
same,"viability, T/C","second compound 0.316 µM, first compound 0.0316 µM",14.6%
same,"viability, T/C","second compound 0.316 µM, first compound 0.0999 µM",7.62%
same,"viability, T/C","second compound 0.316 µM, first compound 0.316 µM",3.05%
same,"viability, T/C","second compound 1 µM, first compound 0.000999 µM",67.3%
same,"viability, T/C","second compound 1 µM, first compound 0.00316 µM",22.5%
same,"viability, T/C","second compound 1 µM, first compound 0.00999 µM",22%
same,"viability, T/C","second compound 1 µM, first compound 0.0316 µM",13.3%
same,"viability, T/C","second compound 1 µM, first compound 0.0999 µM",7.87%
same,"viability, T/C","second compound 1 µM, first compound 0.316 µM",5.39%
same,"viability, T/C","second compound 3.16 µM, first compound 0.000999 µM",59.1%
same,"viability, T/C","second compound 3.16 µM, first compound 0.00316 µM",21.1%
same,"viability, T/C","second compound 3.16 µM, first compound 0.00999 µM",21.8%
same,"viability, T/C","second compound 3.16 µM, first compound 0.0316 µM",15.2%
same,"viability, T/C","second compound 3.16 µM, first compound 0.0999 µM",8.28%
same,"viability, T/C","second compound 3.16 µM, first compound 0.316 µM",5.63%
same,"viability, T/C","second compound 10 µM, first compound 0.000999 µM",63.6%
same,"viability, T/C","second compound 10 µM, first compound 0.00316 µM",25.6%
same,"viability, T/C","second compound 10 µM, first compound 0.00999 µM",18.2%
same,"viability, T/C","second compound 10 µM, first compound 0.0316 µM",14.2%
same,"viability, T/C","second compound 10 µM, first compound 0.0999 µM",8.05%
same,"viability, T/C","second compound 10 µM, first compound 0.316 µM",3.9%
CC(=O)O[C@H]1C(=O)[C@@]2(C)[C@H]([C@H](OC(=O)c3ccccc3)[C@]3(O)C[C@H](OC(=O)[C@H](O)[C@@H](NC(=O)c4ccccc4)c4ccccc4)C(C)=C1C3(C)C)[C@]1(OC(C)=O)CO[C@@H]1C[C@@H]2O,"viability, T/C",compound 0.0316 µM,16.1% and 19.8% and 21.1%
same,"viability, T/C",compound 0.1 µM,8.55% and 9.04% and 12.4%
same,"viability, T/C",compound 0.316 µM,7.38% and 7.58% and 9.89%
same,"viability, T/C",compound 1 µM,7.17% and 7.18% and 9.08%
same,"viability, T/C",compound 3.16 µM,6.82% and 7.18% and 9.43%
same,"viability, T/C",compound 10 µM,9.29% and 10.2% and 11.2%
same,pIC50,curve of compound,> 7.50

# From PubChem BioAssay AID2060508 (Molecular Pharmacology Branch, DTP, NCI, 2025)
